Source: US9375010B2 (priority 2013, dated 2016)

Legend:
Phytophthora infestans = format: in vivo; details: 500 ppm active ingredient, preventive spray on young tomato plants, evaluated 5 days after inoculation
[1] = log P by HPLC on reversed phase columns (EEC directive 79/831 Annex V.A8); format: physicochemical; details: method [a]: LC-MS at pH 2.7, 0.1% formic acid in water / acetonitrile gradient, Table 1 compounds; for chromatographic logP: reversed phase HPLC column
Procedure: Calibration was done with not branched alkan2-ones (with 3 to 16 carbon atoms) with known log P-values (measurement of log P values using retention times with linear interpolation between successive alkanones). lambda-maX-values were determined using UV-spectra from 200 nm to 400 nm and the peak values of the chromatographic signals.

Septoria tritici = assay: In vivo preventive test on Septoria tritici (leaf spot on wheat); details: 500 ppm active ingredient, preventive spray on young wheat plants, evaluated 24 days after inoculation
Procedure: The tested active ingredients are prepared by homogenization in a mixture of acetone/Dimethyl sulfoxide/tween®, and then diluted with water to obtain the desired active material concentration.
The young plants of wheat are treated by spraying the active ingredient prepared as described above. Control plants are treated only with an aqueous solution of acetone/Dimethyl sulfoxide/tween®.
After 24 hours, the plants are contaminated by spraying the leaves with an aqueous suspension of Septoria tritici spores. The contaminated wheat plants are incubated for 72 hours at 18° C. and at 100% relative humidity and then for 21 days at 20° C. and at 90% relative humidity.
The test is evaluated 24 days after the inoculation. 0% means an efficacy which corresponds to that of the control plants while an efficacy of 100% means that no disease is observed.

Plasmopara viticola = assay: Plasmopara test (grapevines)/preventive; format: in vivo; details: 10 ppm active ingredient, preventive spray on young grapevine plants, evaluated 6 days after inoculation
Procedure: To produce a suitable preparation of active compound, 1 part by weight of active compound is mixed with the stated amounts of solvent and emulsifier, and the concentrate is diluted with water to the desired concentration.
To test for preventive activity, young plants are sprayed with the preparation of active compound at the stated rate of application. After the spray coating has dried on, the plants are inoculated with an aqueous spore suspension of Plasmopara viticola and then remain for 1 day in an incubation cabinet at approximately 20° C. and a relative atmospheric humidity of 100%. The plant is subsequently placed for 4 days in a greenhouse at approximately 21° C. and a relative atmospheric humidity of approximately 90%. The plants are then misted and placed for 1 day in an incubation cabinet.
The test is evaluated 6 days after the inoculation. 0% means an efficacy which corresponds to that of the untreated control, while an efficacy of 100% means that no disease is observed.

| Structure (SMILES) | % efficacy (Phytophthora infestans) [%] | LogP [1] | % efficacy (Septoria tritici) [%] | chromatographic logP [1] | % efficacy (Plasmopara viticola) [%] |
| --- | --- | --- | --- | --- | --- |
| CC(=NO)Nc1cccc(CO/N=C(/c2ccccc2)c2nc(=O)on2C)n1 [Example 1] | 99 | 1.29^[a] |  |  |  |
| CC(=NO)Nc1cccc(CO/N=C(/c2ccccc2)c2noc(=O)n2C)n1 [Example 2, N′-hydroxy-N-{6-[({[(Z)-(4-methyl-5-oxo-4,5-dihydro-1,2,4-oxadiazol-3-yl)(phenyl)methylene]amino}oxy)methyl]pyridin-2-yl}ethanimidamide] | 100 |  | 71 | 1.86 |  |
| CC(=NOCC1CC1)Nc1cccc(CO/N=C(/c2ccccc2)c2noc(=O)n2C)n1 [Example 3, N′-(cyclopropylmethoxy)-N-{6-[({[(Z)-(4-methyl-5-oxo-4,5-dihydro-1,2,4-oxadiazol-3-yl)(phenyl)methylene]amino}oxy)methyl]pyridin-2-yl}ethanimidamide] | 99 |  |  | 3.39 |  |
| Cn1oc(=O)nc1/C(=N\OCc1cccc(C#Cc2ccccc2)n1)c1ccccc1 [Example 4, 2-methyl-3-[(Z)-phenyl({[6-(phenylethynyl)pyridin-2-yl]methoxy}imino)methyl]-1,2,4-oxadiazol-5(2H)-one] | 98 |  |  | 3.63 |  |
| CCCCON=C(C)Nc1cccc(CO/N=C(/c2ccccc2)c2nc(=O)on2C)n1 [Example 5] |  | 3.35^[a] |  |  |  |
| Cn1oc(=O)nc1/C(=N\OCc1cccc(C#CC2CC2)n1)c1ccccc1 [Example 6] |  | 3.02^[a] |  |  |  |
| CCCCON=C(C)Nc1cccc(CO/N=C(/c2ccccc2)c2noc(=O)n2C)n1 [Example 7] | 100 | 3.69^[a] |  |  |  |
| CC(=NOCc1ccccc1)Nc1cccc(CO/N=C(/c2ccccc2)c2nc(=O)on2C)n1 [Example 8] | 100 | 3.09^[a] |  |  | 92 |
| CC(=NOCc1ccccc1)Nc1cccc(CO/N=C(/c2ccccc2)c2noc(=O)n2C)n1 [Example 9] | 100 | 3.73^[a] |  |  |  |
| CCCCC#Cc1cccc(CO/N=C(/c2ccccc2)c2nc(=O)on2C)n1 [Example 10] | 100 | 3.81^[a] |  |  | 96 |
| Cn1oc(=O)nc1/C(=N\OCc1cccc(C#CC(C)(C)C)n1)c1ccccc1 [Example 11] | 100 | 3.72^[a] |  |  | 100 |
| Cn1oc(=O)nc1/C(=N\OCc1csc(C#CC2CC2)n1)c1ccccc1 [Example 12, 3-[(Z)-({[2-(cyclopropylethynyl)-1,3-thiazol-4-yl]methoxy}imino)(phenyl)methyl]-2-methyl-1,2,4-oxadiazol-5(2H)-one] | 100 |  |  | 3.13 | 73 |
| Cn1c(/C(=N\OCc2cccc(C#CC3CC3)n2)c2ccccc2)noc1=O [Example 13] |  | 3.65^[a] |  |  |  |
| Cn1oc(=O)nc1/C(=N\OCc1csc(C#CC2CCCCC2)n1)c1ccccc1 [Example 14] |  | 4.44^[a] |  |  |  |
| Cn1c(/C(=N\OCc2cccc(C#Cc3ccccc3)n2)c2ccccc2)noc1=O [Example 15] | 80 | 4.26^[a] |  |  |  |
| Cn1c(/C(=N\OCc2csc(C#CC3CCCCC3)n2)c2ccccc2)noc1=O [Example 16] | 78 | 5.08^[a] |  |  |  |
| Cn1c(C(=NOCc2csc(C#CC3CC3)n2)c2ccccc2)noc1=O [Example 17] | 99 | 3.76^[a] |  |  |  |
| Cn1oc(=O)nc1C(=NOCc1csc(C#CCc2ccccc2)n1)c1ccccc1 [Example 18] | 98 | 3.74^[a] |  |  |  |
| Cn1c(C(=NOCc2csc(C#CCc3ccccc3)n2)c2ccccc2)noc1=O [Example 19] | 90 | 4.37^[a] | 79 |  |  |
| Cn1oc(=O)nc1C(=NOCc1csc(C=CCc2ccccc2)n1)c1ccccc1 [Example 20] |  | 3.85^[a] |  |  |  |
| Cn1c(C(=NOCc2cccc(C=CC3CC3)n2)c2ccccc2)noc1=O [Example 21] |  | 3.48^[a] |  |  |  |
| Cn1oc(=O)nc1C(=NOCc1csc(C=CC2CCCCC2)n1)c1ccccc1 [Example 22] | 95 | 4.64^[a] | 71 |  |  |
| Cn1c(C(=NOCc2cccc(C=Cc3ccccc3)n2)c2ccccc2)noc1=O [Example 23] | 92 | 4.37^[a] | 97 |  |  |
